The test system of this test is platelet aggregation. In words: Platelet aggregation inhibitory activity (ADP-induced, human platelet rich plasma). It is filed as cell-based. To be noted: Homo sapiens. The protocol:
The blood was collected from the elbow vein of a normal volunteer with mixing thereof with 1/10 volume of 3.8% sodium citrate, and the blood was centrifuged at 1000 rpm (150 g) for 10 minutes to give the supernatant as platelet rich plasma (PRP). To PRP (200 μl) was added a test compound solution (2 μl), and the mixture was incubated with stirring at 1000 rpm at 37° C. for two minutes, and thereto was added a platelet aggregator, adenosine diphosphate (ADP, 22 μl) at a final concentration of 3 μg/ml. The platelet aggregation activity was determined by nephelometric analysis using a Hematracer (manufactured by Niko Bioscience, Ltd.). The test results of platelet aggregation inhibitory activity are expressed by IC50, which is a concentration of the test compound being required to inhibit the platelet aggregation reaction by 50%.
The compounds of Examples 18 to 70 were tested in the same manner as in Example 17.
The compounds of Examples 72 to 116 were tested in the same manner as in Example 17.

The mark [1] stands for this setting: Table 2, same manner as Example 17.
Where [2] appears, read: Table 3, same manner as Example 17.

As a reminder, the IC50 is the concentration that gives 50% inhibition. The low end stands for inhibition by little substance, the high end for a need for much substance.

Turning to `CN(C)c1cccc2c(S(=O)(=O)N[C@@H](CNC(=O)CCNC(=O)CCC3CCNCC3)C(=O)O)cccc12` [Example 42, (2S)-2-(5-dimethylamino-1-naphthalene)sulfonylamino-3-(3-(3-(4-piperidyl)propanoylamino)propanoylamino)propanoic Acid], under setting [1], the IC50 was 233 nM. `O=C(CCC1CCNCC1)NCCC(=O)NC[C@H](NS(=O)(=O)c1ccc2ccccc2c1)C(=O)O` [Example 43, (2S)-2-(2-naphthalene)sulfonylamino-3-(3-(3-(4-piperidyl)propanoylamino)propanoylamino)propanoic Acid] displayed an IC50 under setting [1] of 260 nM.

Under setting [1], `CCS(=O)(=O)N[C@@H](CNC(=O)CCNC(=O)CCC1CCNCC1)C(=O)O` [Example 44, (2S)-2-ethanesulfonylamino-3-(3-(3-(4-piperidyl)propanoylamino)propanoylamino)propanoic Acid] had an IC50 of 263 nM. Compound `CCCS(=O)(=O)N[C@@H](CNC(=O)CCNC(=O)CCC1CCNCC1)C(=O)O` [Example 45, (2S)-3-(3-(3-(4-piperidyl)propanoylamino)propanoylamino)-2-propanesulfonylaminopropanoic Acid] registered an IC50 under setting [1] of 121 nM. With `COc1cc(C)c(S(=O)(=O)N[C@@H](CNC(=O)CCNC(=O)CCC2CCNCC2)C(=O)O)c(C)c1C` [Example 46, (2S)-2-(4-methoxy-2,3,6-trimethyl)benzenesulfonylamino-3-(3-(3-(4-piperidyl)propanoylamino)propanoylamino)propanoic Acid], the midpoint of inhibition under setting [1], the IC50, lay at 32 nM.

As for `O=C(CCC1CCNCC1)NCCC(=O)NC[C@H](NS(=O)(=O)c1ccc(OC(F)(F)F)cc1)C(=O)O` [Example 47, (2S)-3-(3-(3-(4-piperidyl)propanoylamino)propanoylamino)-2-(4-trifluoromethoxy)benzenesulfonylaminopropanoic Acid], under setting [1], the midpoint of inhibition, the IC50, lay at 238 nM.

On to `CCCCOc1ccc(S(=O)(=O)N[C@@H](CNC(=O)CCNC(=O)CCC2CCNCC2)C(=O)O)cc1` [Example 48, (2S)-2-(4-butoxy)benzenesulfonylamino-3-(3-(3-(4-piperidyl)propanoylamino)propanoylamino)propanoic Acid], for which the IC50 under setting [1] came out at 67 nM. With `CCCc1ccc(S(=O)(=O)N[C@@H](CNC(=O)CCNC(=O)CCC2CCNCC2)C(=O)O)cc1` [Example 49, (2S)-3-(3-(3-(4-piperidyl)propanoylamino)propanoylamino)-2-(4-propyl)benzenesulfonylaminopropanoic Acid], half-maximal inhibition under setting [1] (IC50) required 170 nM. `CC(C)c1ccc(S(=O)(=O)N[C@@H](CNC(=O)CCNC(=O)CCC2CCNCC2)C(=O)O)cc1` [Example 50, (2S)-2-(4-isopropyl)benzenesulfonylamino-3-(3-(3-(4-piperidyl)propanoylamino)propanoylamino)propanoic Acid]: the half-inhibitory concentration (IC50) under setting [1] amounted to 203 nM.

In turn, `O=C(CCCC1CCNCC1)NCCC(=O)NC[C@H](NS(=O)(=O)c1ccccc1)C(=O)O` [Example 53, (2S)-2-benzenesulfonylamino-3-(3-(4-(4-piperidyl)butanoylamino)propanoylamino)propanoic Acid] had an IC50 under setting [1] of 111 nM. Consider `O=C(CCCC(=O)NC[C@H](NS(=O)(=O)c1ccccc1)C(=O)O)NCC1CCNCC1` [Example 54, (2S)-2-benzenesulfonylamino-3-(4-(4-piperidylmethylcarbamoyl)butanoylamino)propanoic Acid], for which the IC50 under setting [1] was determined as 79 nM. For the compound `O=C(CCNC(=O)COC1CCNCC1)NC[C@H](NS(=O)(=O)c1ccccc1)C(=O)O` [Example 55, (2S)-2-benzenesulfonylamino-3-(3-(2-(4-piperidyloxy)ethanoylamino)propanoylamino)propanoic Acid], under setting [1], the midpoint of inhibition, the IC50, lay at 300 nM.

Regarding `CCCCS(=O)(=O)N[C@@H](CNC(=O)CCCOc1ccc(C(=N)N)cc1)C(=O)O` [Example 56, (2S)-3-(4-(4-amidinophenoxy)butanoylamino)-2-butanesulfonylaminopropanoic Acid], under setting [1], the IC50 is 90 nM. Same read-out and setting: under `CCCCS(=O)(=O)N[C@@H](CNC(=O)CCCCOc1ccc(C(=N)N)cc1)C(=O)O` [Example 65, (2S)-3-(5-(4-amidinophenoxy)pentanoylamino)-2-butanesulfonylaminopropanoicAcid] stands 79 nM. `COc1ccc(S(=O)(=O)N[C@@H](CNC(=O)CCCCc2ccc(C(=N)N)cc2)C(=O)O)cc1` [Example 66, (2S)-3-(5-(4-amidinophenyl)pentanoylamino)-2-(4-methoxy)benzenesulfonylaminopropanoic Acid]: the IC50 under setting [1] came to 16 nM. The same measure, in the same setting: the result for `COc1ccc(S(=O)(=O)N[C@@H](CNC(=O)C2CCCN(C(=O)CCC3CCNCC3)C2)C(=O)O)cc1` (stereo partly drawn) [Example 70, (2S)-2-(4-methoxy)benzenesulfonylamino-3-(1-(3-(4-piperidyl)propanoyl)-3-piperidylcarbonylamino)propanoic Acid] reads 57 nM. Compound `COc1cccc2c(S(=O)(=O)N[C@@H](CNC(=O)CCNC(=O)CCC3CCNCC3)C(=O)O)cccc12` [Example 72, (2S)-2-(5-methoxy-1-naphthalene)sulfonylamino-3-(3-(3-(4-piperidyl)propanoylamino)propanoylamino)propanoic Acid] returned an IC50 under setting [2] of 52 nM. Same read-out and setting: the result for `N=C(N)c1ccc(C(=O)NCCC(=O)NC[C@@H](NS(=O)(=O)c2ccccc2)C(=O)O)cc1` [Example 73, (2R)-3-(3-(4-amidinobenzoylamino)propanoylamino)-2-benzenesulfonylaminopropanoic Acid] reads 162 nM; that for `N=C(N)c1ccc(C(=O)NCCC(=O)NC[C@H](NS(=O)(=O)c2ccccc2N)C(=O)O)cc1` [Example 81, (2S)-3-(3-(4-amidinobenzoylamino)propanoylamino)-2-(2-amino)benzenesulfonylaminopropanoic Acid], 28 nM.

`N=C(N)c1ccc(OCCCC(=O)NC[C@H](NS(=O)(=O)c2ccccc2N)C(=O)O)cc1` [Example 84, (2S)-3-(4-(4-amidinophenoxy)butanoylamino)-2-(2-amino)benzenesulfonylaminopropanoic Acid]: under setting [2], the IC50 amounted to 22 nM. Still for that read-out and setting: under `N=C(N)c1ccc(CCCCC(=O)NC[C@H](NS(=O)(=O)c2cccc3ccccc23)C(=O)O)cc1` [Example 88, (2S)-3-(5-(4-amidinophenyl)pentanoylamino)-2-(1-naphthalene)sulfonylaminopropanoic Acid] stands 44 nM; under `CCc1ccc(S(=O)(=O)N[C@@H](CNC(=O)CCCCc2ccc(C(=N)N)cc2)C(=O)O)cc1` [Example 89, (2S)-3-(5-(4-amidinophenyl)pentanoylamino)-2-(4-ethyl)benzenesulfonylaminopropanoic Acid], 26 nM. In turn, `N=C(N)c1ccc(CCCCC(=O)NC[C@H](NS(=O)(=O)c2ccccc2C(F)(F)F)C(=O)O)cc1` [Example 90, (2S)-3-(5-(4-amidinophenyl)pentanoylamino)-2-(2-trifluoromethyl)benzenesulfonylaminopropanoic Acid] had an IC50 under setting [2] of 15 nM. Under setting [2], `N=C(N)c1ccc(C(=O)CCCCC(=O)NC[C@H](NS(=O)(=O)c2ccccc2)C(=O)O)cc1` [Example 94, (2S)-3-(5-(4-amidinobenzoyl)pentanoylamino)-2-benzenesulfonylaminopropanoic Acid] registered an IC50 of 31 nM. `CN(CCC(=O)NC[C@H](NS(=O)(=O)c1ccccc1)C(=O)O)C(=O)c1ccc(C(=N)N)cc1` [Example 96, (2S)-3-(3-(4-amidinobenzoylmethylamino)propanoylamino)-2-benzensulfonylaminopropanoic Acid]: the concentration for half-maximal inhibition (IC50) under setting [2] amounted to 57 nM. Take `CCc1ccc(S(=O)(=O)N[C@@H](CNC(=O)CCN(C)C(=O)c2ccc(C(=N)N)cc2)C(=O)O)cc1` [Example 97, (2S)-3-(3-(4-amidinobenzoylmethylamino)propanoylamino)-2-(4-ethyl)benzenesulfonylaminopropanoic Acid]: under setting [2], it took 49 nM to reach half-maximal inhibition (IC50). Under setting [2], `N=C(NN)c1ccc(C(=O)NCCC(=O)NC[C@H](NS(=O)(=O)c2ccccc2)C(=O)O)cc1` [Example 101, (2S)-2-benzenesulfonylamino-3-(3-(4-hydrazinoiminobenzoylamino)propanoylamino)propanoic Acid] came in with an IC50 of 103 nM.

`CC(=O)NNC(=N)c1ccc(C(=O)NCCC(=O)NC[C@H](NS(=O)(=O)c2ccccc2)C(=O)O)cc1` [Example 102, (2S)-2-benzenesulfonylamino-3-(3-(4-acetylhydrazinoiminobenzoylamino)propanoylamino)propanoic Acid] showed an IC50 under setting [2] of 35 nM.

Under setting [2], `CCCCNC(=N)c1ccc(C(=O)NCCC(=O)NC[C@H](NS(=O)(=O)c2ccccc2)C(=O)O)cc1` [Example 103, (2S)-2-benzenesulfonylamino-3-(3-(4-(N-n-butylamidino)benzoylamino)propanoylamino)propanoic Acid] returned an IC50 of 25 nM. The compound `CCCCCCNC(=N)c1ccc(C(=O)NCCC(=O)NC[C@H](NS(=O)(=O)c2ccccc2)C(=O)O)cc1` [Example 104, (2S)-2-benzenesulfonylamino-3-(3-(4-(N-n-hexylamidino)benzoylamino)propanoylamino)propanoic Acid] showed an IC50 under setting [2] of 28 nM. For `N=C(NC1CCCCC1)c1ccc(C(=O)NCCC(=O)NC[C@H](NS(=O)(=O)c2ccccc2)C(=O)O)cc1` [Example 105, (2S)-2-benzenesulfonylamino-3-(3-(4-(N-cyclohexylamidino)benzoylamino)propanoylamino)propanoic Acid], the IC50 under setting [2] was 22 nM. `N=C(NCc1ccccc1)c1ccc(C(=O)NCCC(=O)NC[C@H](NS(=O)(=O)c2ccccc2)C(=O)O)cc1` [Example 106, (2S)-2-benzenesulfonylamino-3-(3-(4-(N-benzylamidino)benzoylamino)propanoylamino)propanoic Acid] came in with an IC50 under setting [2] of 116 nM.

These data come from US6048854A, “2,3-diaminopropionic acid derivative” (Sumitomo Pharmaceuticals Company, Limited, priority 1993, dated 2000).
